Patent US5310884A (Merck Frosst Canada, Inc., priority 1992, dated 1994)
Where two headings read alike, the source gives them in different places.

Legend:
[1] = biological target: T1, LTD4 receptor (guinea-pig lung membranes) (Cavia porcellus, UniProt Q2NNR5); experiment: biochemical; conditions: for effect of divalent cation on [3H]LTD4 specific binding: CaCl2 at concentrations above 30 mM, MgCl2 instead of CaCl2
T1 sequence (Q2NNR5 1-340): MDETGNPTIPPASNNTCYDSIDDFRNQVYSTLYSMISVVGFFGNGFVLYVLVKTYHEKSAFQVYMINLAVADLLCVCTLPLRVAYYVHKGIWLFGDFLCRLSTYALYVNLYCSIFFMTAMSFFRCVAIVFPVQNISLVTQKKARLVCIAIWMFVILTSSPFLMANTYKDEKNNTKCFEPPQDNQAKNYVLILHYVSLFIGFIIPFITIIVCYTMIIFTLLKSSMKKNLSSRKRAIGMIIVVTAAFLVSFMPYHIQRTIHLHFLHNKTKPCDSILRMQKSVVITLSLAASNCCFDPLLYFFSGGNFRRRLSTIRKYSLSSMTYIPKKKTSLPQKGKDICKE
Protocol: (§1) Guinea pigs (male; 350 g) were sacrificed by cervical dislocation and the lung tissues removed. All subsequent procedures were performed either on ice or at 4° C. Connective tissue, trachea, large blood vessels and major airways were dissected away and the remaining lung tissue (primarily parenchyma) was finely minced prior to homogenisation in 10 vol of 10 mM HEPES/KOH pH 7.4, containing 0.25 M sucrose, 2 mM EDTA, 2 mM phenylmethylsulphonyl fluoride, 10 μg/ml pepstatin, 10 μg/ml leupeptin and 10 μM E-64, using 5 s bursts of a polytron (Brinkman Instruments). The homogenate was subjected to differential centrifugation at 1000×g for 10 min, 10,000×g for 10 min and 100,000×g for 40 min. The resulting 100,000×g pellets were resuspended in 10 mM HEPES/KOH pH 7.4, containing 10% (w/v) sucrose, at a final protein concentration of 1-2 mg/ml. This tissue suspension was carefully layered over 10 mM HEPES/KOH pH 7.4 containing 40% (w/v) sucrose in a 3:2 (v/v) ratio. The discontinuous sucrose gradient was centrifuged at 83,000×g for 60 min. The membrane fraction located at the interface of the sucrose gradient layers was recovered, diluted 10-fold in 10 mM HEPES/KOH pH 7.4 and further centrifuged at 150,000×g for 40 min. The final membrane pellets were resuspended in 10 mM HEPES/KOH pH 7.4 at a protein concentration of 2-4 mg/ml and stored at […].
Competition experiments were analysed and IC50 values derived using the Kinetic, EBDA, Ligand, […] program from Biosoft (McPherson, 1985).
(§2) FIG. 4. […] Radiolabelled proteins were resolved by SDS-PAGE and visualized by autoradiography. […] In addition, photoaffinity labelled membranes were subjected to immunoprecipitation with RAGpAlb (Lane C) and non-immune rabbit serum (Lane D), as described in the Methods. The migration of molecular weight standards is indicated on the left. FIGS. 5(A)-5(C). […] Results are expressed as percentage of maximum specific binding as a function of CaCl2 concentration. […] Only the results for total binding are shown.
(§3) Results are expressed as percentage of maximum specific binding as a function of nucleotide concentration. […] Only the results for total binding are shown.
(§4) Results are expressed as percentage of maximum specific binding as a function of cation concentration. […] Only the results for total binding are shown.

[2] = biological target: T1, LTD4 receptor (guinea-pig lung membranes); conditions: for effect of divalent cation on [125I]Azido-LTD4 specific binding: CaCl2 at concentrations above 30 mM, MgCl2 instead of CaCl2
Protocol: as §1
Filters were then washed with 16 ml of 10 mM HEPES/KOH, pH 7.4 containing 0.01% (w/v) bovine serum albumin, at 4° C.
as §2, §3, §4

[3] = tested on: 45 kDa guinea-pig lung membrane protein; experiment: [125I]Azido-LTD4 photoaffinity labelling of the 45 kDa guinea-pig lung membrane protein (SDS-PAGE, autoradiography, laser densitometry); assay type: binding; conditions: for effect of divalent cation on photolabelling of the 45 kDa protein: CaCl2, same concentration range, MgCl2 instead of CaCl2
Protocol: as §1
(§5) Samples were incubated for 60 min at room temperature. […] The residual samples were then transferred to 25 mm diameter cluster plate well for photolysis. The cluster plates were placed on aluminium blocks, pre-cooled to -20° C., and illuminated from above with a 40 W ultraviolet light source (Phillips, γmax =350 nm) at a distance of 10 cm for 2 min. The guinea-pig lung membranes were then recovered from 1 ml sample aliquots by centrifugation at 150,000×g for 15 min at 4° C. and solubilized in sodium dodecyl sulphate polyacrylamide gel electrophoresis (SDS-PAGE) sample buffer prior to resolution of the proteins by SDS-PAGE (Laemmli, 1970). Protein bands were visualized by Coomassie Blue staining while radiolabelled proteins were identified by autoradiography of dried gels and quantified by laser densitometry (Molecular Dynamics, ImageQuant).
as §2, §3, §4

[4] = biological target: T2, 45 kDa guinea-pig lung membrane protein (Cavia porcellus, UniProt Q2NNR5); experiment: as above; assay type: binding; conditions: for IC50: laser densitometry, leukotrienes and antagonists, read-out: IC50 for inhibition of photolabelling of the 45 kDa protein
T2 construct: Guinea pigs (male; from tissue; host or cells: guinea-pig lung (primarily parenchyma), sucrose-gradient membrane fraction
T2 sequence (Q2NNR5 1-340): T1 sequence (Q2NNR5 1-340)
Protocol: as §1, §5, §2, §3, §4

[5] = biological target: T1, LTD4 receptor (guinea-pig lung membranes); experiment: Saturation binding to guinea-pig lung membranes, Scatchard plot analysis; set-up: Guinea pigs (male; 350 g) were sacrificed by cervical dislocation and the lung tissues removed; from tissue; host or cells: guinea-pig lung (primarily parenchyma), sucrose-gradient membrane fraction; conditions: Scatchard, single site
[6] = biological target: T1, LTD4 receptor (guinea-pig lung membranes); experiment: Rates of association and dissociation of radioligand binding to guinea-pig lung membranes; set-up: Guinea pigs (male; from tissue; host or cells: guinea-pig lung (primarily parenchyma), sucrose-gradient membrane fraction; conditions: identical experimental conditions; data not shown
Protocol: FIG. 3. […] Aliquots (500 μl) were removed and filtered at the required time intervals.

For `Nc1ncnc2c1ncn2[C@@H]1O[C@H](COP(=O)(O)OP(=O)(O)OP(O)(O)=S)[C@@H](O)[C@H]1O` [ATPγS], the “effect of nucleotide analogue on [3H]LTD4 specific binding” value ([1]; ATPγS) was “no detectable effect” and the “potency relative to GTPγS in inhibiting [125I]Azido-LTD4 specific binding (fold less potent)” value ([2]; ATPγS vs GTPγS) was 100 fold.
In the case of `[Ca+2].[Cl-].[Cl-]` [CaCl2], the “concentration for optimal [3H]LTD4 specific binding” value [1] is reported as 3 to 30 mM, the “effect of divalent cation on [3H]LTD4 specific binding” value [1] is reported as “higher concentrations proving inhibitory” and the “concentration for optimal radiolabelling of the 45 kDa protein” value [3] is reported as 3 to 30 mM. For the same compound, the “effect of divalent cation on photolabelling of the 45 kDa protein” value [3] was “enhanced”, the “concentration for optimal [125I]Azido-LTD4 specific binding” value [2] was 3 to 30 mM and the “effect of divalent cation on [125I]Azido-LTD4 specific binding” value [2] was “higher concentrations proving inhibitory”.
With `Nc1nc2c(ncn2[C@@H]2O[C@H](COP(=O)(O)OP(=O)(O)OP(O)(O)=S)[C@@H](O)[C@H]2O)c(=O)[nH]1` [GTPγS] the inhibition at 1000 µM ([1]; read-out: inhibition of [3H]LTD4 specific binding) was 60%, the “potency relative to ATPγS in inhibiting photolabelling of the 45 kDa protein (fold more potent)” value ([3]; GTPγS vs ATPγS) was 100 fold and the IC50 ([3]; nucleotide analogue, read-out: IC50 for inhibition of photolabelling of the 45 kDa protein) was 1 µM. For the same compound, the “inhibition of [125I]Azido-LTD4 specific binding” value ([2]; 10 μM GTPγS) was “complete inhibition”.
For `[Cl-].[K+]` [KCl], the “inhibition of [3H]LTD4 specific binding” value ([1]; KCl, 0-100 mM) was “did not significantly inhibit”, the “inhibition of photolabelling of the 45 kDa protein” value ([3]; KCl, 0-100 mM) was “did not significantly inhibit” and the “inhibition of [125I]Azido-LTD4 specific binding” value ([2]; KCl, 0-100 mM) was “did not significantly inhibit”.
With `CCCCC/C=C\C[C@@H](O)/C=C/C=C/C=C\[C@@H](O)CCCC(=O)O` [LTB4] the “potency relative to LTD4 (fold less potent), [3H]LTD4 specific binding” value ([1]; vs LTD4) was “approximately 10000 fold”, the “concentration at which it competes for radiolabelling of the 45 kDa protein” value ([4]; LTB4) was 10 µM and the “potency relative to LTD4 (fold less potent), [125I]Azido-LTD4 specific binding” value ([2]; vs LTD4) was “approximately 10000 fold”.
For `CN(C)C(=O)CCSC(SCCC(=O)O)c1cccc(/C=C/c2ccc3ccc(Cl)cc3n2)c1` (centres unmarked) [MK-571], the IC50 [1] was 0.002 µM, the IC50 [4] was 0.001 µM and the IC50 ([2]; read-out: IC50 for competition with [125I]Azido-LTD4 specific binding, leukotrienes and antagonists, LTC4 with 50 mM serine-borate) was 0.003 µM.
For `CC(C)c1ccc2c(c1)c(SC(C)(C)C)c(CC(C)(C)C(=O)O)n2Cc1ccc(Cl)cc1` [MK-886], the “concentration producing inhibition of [3H]LTD4 specific binding” value ([1]; weak competing ligand) was over 1 µM, the “competition for radiolabelling of the 45 kDa protein” value ([4]; MK-886, 0-10 μM) was “only able to compete for the selective radiolabelling of the 45 kDa protein at similarly high ligand concentrations” and the “concentration producing inhibition of [125I]Azido-LTD4 specific binding” value ([2]; weak competing ligand) was over 1 µM.
For `[Cl-].[Cl-].[Mg+2]` [MgCl2], the “effect of divalent cation on [3H]LTD4 specific binding” value [1] was “Identical results”, the “effect of divalent cation on photolabelling of the 45 kDa protein” value [3] was “Identical results” and the “effect of divalent cation on [125I]Azido-LTD4 specific binding” value [2] was “Identical results”.
For `[Cl-].[Na+]` [NaCl], the IC50 ([1]; read-out: IC50 for inhibition of [3H]LTD4 specific binding, monovalent cation) was about 30000 µM, the IC50 ([3]; monovalent cation, read-out: IC50 for inhibition of radiolabelling of the 45 kDa protein) was about 30000 µM and the IC50 ([2]; read-out: IC50 for inhibition of [125I]Azido-LTD4 specific binding, monovalent cation) was about 30000 µM.
With `CCCCC/C=C\C\C=C/C=C/C=C/[C@@H](SCC(N)C(=O)NCC(=O)O)[C@@H](O)CCCC(=O)O` (some centres unmarked) [[^3 H]LTD4] the “maximum number of binding sites (Bmax)” value [5] was 2000 fmol/mg protein and the “association and dissociation profile compared with [125I]Azido-LTD4” value [6] was “identical”.
For `CCCCC/C=C\C\C=C/C=C/C=C/[C@@H](SC[C@H](NC(=O)CCCCCNC(=O)c1cc(I)c(N=[N+]=[N-])cc1O)C(=O)NCC(=O)O)[C@@H](O)CCCC(=O)O` [^127 lAzido-LTD4], the Ki [1] was 0.0017 µM and the “Ki relative to LTD4 (fold higher)” value ([1]; vs Ki of LTD4, same assay) was 5 fold.
`COc1cc(C(=O)NS(=O)(=O)c2ccccc2C)ccc1Cc1cn(C)c2ccc(NC(=O)OC3CCCC3)cc12` [lCl 204,219] was tested, and the IC50 [4] was 0.0003 µM.
